The source of these data is patent US8962024B2, “Method for treating primary insomnia” (Neurim Pharmaceuticals (1991) Ltd, priority 2001, dated 2015).

In data set [1] the test system is elderly primary insomnia patients. Description: Full-night polysomnographic recordings after 3 weeks of treatment (Example 1). The data set is classed as in vivo, human. The protocol: (§1) The effect of a prolonged-release formulation of melatonin on sleep quantity and quality in 40 elderly primary insomnia patients (aged 76 [SD 8] years) were studied in a randomized, double-blind, two parallel group study. The subjects were treated for 3 weeks every evening with melatonin (2 mg prolonged-release formulation) or placebo. Full-night polysomnographic recordings were performed on the last two days of treatment to measure quantitative aspects of sleep. On each morning following sleep recording in the laboratory, a battery of psychomotor tests was taken by all patients to assess daytime vigilance. In addition, patients recorded every day in diaries their perceived quality of sleep the previous night.

The test system is the same in data set [2]. Kind of data set: Battery of psychomotor tests to assess daytime vigilance (Example 1). The data set is classed as in vivo, human. As to conditions: 2 mg prolonged-release formulation. The method, then:
as §1

For data set [3] the test system is unchanged. Description: Patient diaries of perceived quality of sleep (Example 1). It counts as in vivo, human. As to conditions: 2 mg prolonged-release formulation, 3 weeks. The protocol:
as §1

The test system is the same in data set [4]. Kind of data set: Subjectively assessed quality of sleep and daytime alertness on 100 mm line (Example 2). It counts as in vivo, human. As to conditions: 2 mg per night prolonged-release, 3 weeks. The protocol: The effect of a prolonged-release formulation of melatonin on subjectively assessed sleep quality and daytime vigilance in 170 elderly primary insomnia patients (aged 68.5 [SD 8.3] years) were studied in a randomized, double-blind, two parallel group study. The subjects were treated for 2 weeks with placebo to establish baseline characteristics and then for 3 weeks with melatonin (2 mg per night of prolonged-release formulation) or placebo. On the last three days of the baseline and treatment periods patients were asked to assess the quality of their sleep the previous night and their feeling in the morning. The quality of sleep question was “How would you compare the quality of sleep using the medication with non-medicated (your usual) sleep?” The patients marked the level of their perceived quality of sleep on a 100 mm, non-hatched horizontal line with two endpoints. The left endpoint was labeled “more restless than usual” and the right endpoint was labeled “more restful than usual”. The waking state question was “How do you feel now?” The patients marked the level of their perceived waking state on a 100 mm, non-hatched horizontal line with two endpoints. The left endpoint was labeled “tired” and the right endpoint was labeled “alert”. The distance of the patient mark from the right endpoint in mm was measured (a reduction in value therefore indicates a better sleep or less tired state). The mean distance across the three nights was calculated.

Data set [5] deals with primary insomnia patients (aged 20-80 years). Description: Subjectively assessed quality of sleep and daytime alertness on 100 mm line (Example 3). It counts as in vivo, human. The note with it: for Change in perceived daytime alertness, mean in mm / Change in perceived quality of sleep, mean in mm: 2 mg per night prolonged-release, 3 weeks. The method, then:
The effect of a prolonged-release formulation of melatonin on subjectively assessed sleep quality and daytime vigilance in 170 elderly primary insomnia patients (aged 68.5 [SD 8.3] years) were studied in a randomized, double-blind, two parallel group study. The subjects were treated for 2 weeks with placebo to establish baseline characteristics and then for 3 weeks with melatonin (2 mg per night of prolonged-release formulation) or placebo. On the last three days of the baseline and treatment periods patients were asked to assess the quality of their sleep the previous night and their feeling in the morning. The quality of sleep question was “How would you compare the quality of sleep using the medication with non-medicated (your usual) sleep?” The patients marked the level of their perceived quality of sleep on a 100 mm, non-hatched horizontal line with two endpoints. The left endpoint was labeled “more restless than usual” and the right endpoint was labeled “more restful than usual”. The waking state question was “How do you feel now?” The patients marked the level of their perceived waking state on a 100 mm, non-hatched horizontal line with two endpoints. The left endpoint was labeled “tired” and the right endpoint was labeled “alert”. The distance of the patient mark from the right endpoint in mm was measured (a reduction in value therefore indicates a better sleep or less tired state). The mean distance across the three nights was calculated. The effect of melatonin on subjectively assessed sleep quality and daytime vigilance in 131 primary insomnia patients (aged 20-80 years) were studied in a randomised, double-blind, parallel group study. The subjects were treated for 1 week with placebo to establish baseline characteristics and then for 3 weeks with melatonin (2 mg per night of prolonged-release formulation) or placebo. On the last three days of the baseline and treatment periods patients were asked to assess the quality of their sleep the previous night and their feeling at daytime as described in Example 2.

Data set [6] relates to polysomnographically pre-screened insomniacs. As to conditions: 1 and 5 mg at 10:45 pm for one night each, cited from earlier work.
Data set [7] has as its system patients with psychophysiological insomnia. The note with it: 5 mg at 8:00 pm for 1 week; cited from earlier work.
Data set [8] concerns elderly patients with sleep maintenance insomnia. As to conditions: immediate and controlled release formulations, 0.5 and 5 mg, cited from earlier work.
Data set [9] relates to insomniac patients. As to conditions: 75 mg per os at 10 PM daily for 14 consecutive days, cited from earlier work.
The subject of data set [10] is healthy elderly volunteers. Kind of data set: Battery of psychomotor tasks after an evening tablet (Example 4). The data set is classed as in vivo, human. The protocol:
(§2) The effect of melatonin (2 mg prolonged-release formulation), N, N, 6-trimethyl-2-p-tolylimidazo[1,2-a]pyridine-3-acetamide (zolpidem; 10 mg) and placebo on psychomotor skills and driving performance were assessed in 16 healthy elderly volunteers age 59.4 years (SD 3.2). In a randomized, double-blind, crossover study the subjects were given a tablet of placebo in the evening to establish baseline and then a tablet of melatonin, zolpidem or placebo in a random order in the evening with one week with no treatment in between treatments. A battery of psychomotor tasks, driving performance and wake EEG during a driving test were studied in the patients at pre-selected intervals after the administration of the tablet.

The test system of data set [11] is healthy elderly volunteers. Description: Driving performance test after an evening tablet (Example 4). It counts as in vivo, human. The note with it: 2 hours post-dosing; zolpidem 10 mg, melatonin prolonged release 2 mg. The protocol:
as §2

Setting [12] is: 2 mg prolonged-release formulation, 3 weeks, versus placebo.
Where [13] appears, read: zolpidem 10 mg single evening tablet.

As for `COc1ccc2[nH]cc(CCNC(C)=O)c2c1` [melatonin], the “sleep onset latency (SL) time shortened on average, compared to placebo” value in [1] (2 mg prolonged-release formulation every evening for 3 weeks, P=0.011) came to 9 min. For the same compound, the “duration of wake prior sleep onset (DWAPSO) compared to placebo” value in data set [1] (2 mg prolonged-release formulation, 3 weeks, p=0.011) is given as “improved significantly”. In addition, the “% of time spent asleep prior to sleep onset (DWAPSOP) compared to placebo” value in data set [1] (2 mg prolonged-release formulation, 3 weeks, p=0.02) was “improved significantly”. For the same compound, in data set [1] (setting [12]), the “sleep architecture or all night EEG spectral analysis” value is recorded as “no differences between groups”; the “sleep maintenance variables (number of awakenings, DWASO, sleep efficiency, total sleep time)” value was “no differences between melatonin and placebo”. Further, in [2] (at the end of treatment), the “Critical Flicker fusion test and total reaction time, melatonin vs. placebo” value is on record as “significant treatment effects”. For the same compound, the “psychomotor skills compared to placebo-treated group” value in [2] (morning after sleep recording) is “significantly higher”. Besides, in data set [3], the “ease of getting to sleep as evaluated in diaries, compared to placebo” value was “did not evaluate the ease of getting to sleep as being better” and the “quality of sleep as judged by patients in diaries” value is listed as “improved”. Further, in [4], the “quality of sleep and daytime alertness compared to placebo” value is “significantly improved”. Besides, in data set [4] (170 elderly patients, reduction = better sleep), the “Change in perceived quality of sleep, change in mm mean” value was −24.3 mm. Further, the “Change in perceived daytime alertness, change in mm mean” value in data set [4] (170 elderly patients, reduction = less tired) is recorded as −16.8 mm. In addition, the “quality of sleep and daytime alertness” value in data set [5] (55 years and older patients) was “improvement”. For the same compound, in [5] (Patients aged 55 and over), the “Change in perceived daytime alertness, mean in mm” value is reported as −16.3 mm and the “Change in perceived quality of sleep, mean in mm” value is listed as −13.1 mm. For the same compound, in data set [5] (Patients aged less than 55), the “Change in perceived daytime alertness, mean in mm” value is given as −4.0 mm and the “Change in perceived quality of sleep, mean in mm” value is reported as −1.6 mm. In addition, the “quality of sleep and daytime alertness compared to placebo” value in data set [5] (patients <55 years of age) is recorded as “significant worsening”. For the same compound, the “sleep latency, sleep efficiency, total sleep time, wake after sleep onset” value in data set [6] (10 insomniacs) was “did not alter”. In data set [6], the patient-reported sleep quality entry is given as “improved”; the “rested in the morning, patient-reported” value was “not more rested”; the “total sleep time as believed by the patients” value is “shorter”. In data set [7], the “patients unable to distinguish the period of active melatonin treatment” value is on record as 8 patients out of 15 and the “sleep quantity or quality” value is given as “no reported change”. Also, the sleep latency entry in [8] (30 min before sleep) is listed as “reduced”. In addition, in data set [8], the “reported sleep quality or daytime measure of mood and alertness” value is recorded as “No melatonin-induced changes”; the “wake time after sleep onset or total sleep time” value was “did not alter”. Besides, the “subjective assessment of total sleep time and daytime alertness” value in data set [9] (13 patients) is “significant increase”. Moreover, the “patients reporting no significant effect on subjective feelings of well-being” value in [9] is reported as 7/13.

Turning to `Cc1ccc(-c2nc3ccc(C)cn3c2CC(=O)N(C)C)cc1` [zolpidem, N, N, 6-trimethyl-2-p-tolylimidazo[1,2-a]pyridine-3-acetamide], the “Memory efficiency, both recalls (immediate and delayed), compared to placebo and melatonin 2 mg” value in [10] (zolpidem 10 mg) was “decreased”. Besides, in data set [10] (setting [13]), the “impairments compared to placebo across measures of attention, episodic secondary memory and motor coordination” value is on record as “several acute impairments”; the “time post-dosing by which acute impairments were resolved” value was not above 12.5 h. The number of collisions entry in data set [11] is “increased number of collisions”.
